Experiments:
[1] = DPPH free radical scavenging assay; settings: DPPH 150 μM in MeOH, 30 min, room temperature, absorbance at 490 nm; vitamin C as positive control
Method: The assay for DPPH radical scavenging activity was measured by a reported method, with slight modifications. Firstly, 180 μL of DPPH^· (150 μM in MeOH) and 20 μL of a series of test compound solutions (31.2, 62.5, 125, 250, 500 μM in MeOH) were mixed in each well of a 96-well microtiter plate. The reaction was measured by determination of the absorbance Asample+DPPH· using a microtiter plate reader at 490 nm after shaking for 30 min at room temperature in the dark. Twenty μL test samples of each concentration with 180 μL of MeOH were used as the blank measurement for each tested compound, and the absorbance was recorded as Asample. The absorbance of the mixture of 20 μL of MeOH and 180 μL of DPPH^· was recorded as ADPPH·, and the absorbance of the 200 μL of MeOH was measured as Ablank. The natural antioxidant vitamin C was used as a positive control. Calculations of the DPPH^· scavenging activity was performed according to the following equation: scavenging activity (%) = [1 − (Asample+DPPH· − Asample)/(ADPPH· − Ablank)] × 100%. All measurements were done in triplicate from two independent experiments. The reported EC50 was the average value of two independent experiments.

| SMILES | EC50 [1] [µM] | melting point [°C] |
| --- | --- | --- |
| CC(C)=C1Oc2c(ccc3cc(C)oc(=O)c23)C1=O [Compound 1, 7-methyl-2-(propan-2-ylidene)-9H-furo[3,2-h]isochromene-3,9(2H)-dione] | 125 | – |
| CC(C)[C@H]1Oc2c(ccc3c2C(=O)O[C@H](C)C3)[C@H]1O [Compound 2, asperisocoumarin B] | – | 179.4 to 181.4 |
| CC(C)c1cc2ccc3c(c2o1)C(=O)O[C@H](C)C3 [Compound 3, (R)-2-isopropyl-7-methyl-6,7-dihydro-9H-furo[3,2-h]isochromen-9-one] | 130 | – |
| COc1cc2c(c(O)c1COCc1c(OC)cc3c(c1O)C(=O)OCC3)C(=O)OCC2 [Compound 6, asperisocoumarin F] | – | 201.1 to 203 |
| O=C1O[C@H]([C@@H](O)CO)C(O)=C1O [vitamin C, reference compound] | 35 | – |
